Converted amounts (≈) assume the structure as drawn.
What was measured:
[1] = target: T1, recombinant human GST-Syk (Homo sapiens, UniProt P43405); assay: Homogeneous Time-Resolved Fluorescence (HTRF) assay for the recombinant human Syk enzyme; format: biochemical; conditions: recombinant human GST-Syk 5 pM, ATP 25 μM, read-out: IC50
T1 construct: purchased Carna Biosciences 08-176
Outline: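 Recombinant GST-hSyk phosphorylates a biotinylated peptide for 45 min at room temperature. Quenched with EDTA buffer containing 2 nM Eu-anti-phosphotyrosine antibody and 70 nM SA-APC; HTRF read after 30 min.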

[2] = Solubility in biorelevant fasted state simulated intestinal fluid (FaSSIF); format: physicochemical; conditions: 25 °C, fassif, kinetic from dmso stock, Solubility
Experimental: Solubility in Biorelevant Fasted State Simulated Intestinal Fluid (FaSSIF):
A 10 mM DMSO stock solution of compound to be tested is used. A 100 μM standard solution is generated by diluting 2.5 μL of the 10 mM stock solution with 247.5 μL of diluent (10% DMSO/10% MeCN/80% MeOH, v/v/v). A solubility solution is generated by diluting 5 μL of the 10 mM stock solution with 245 μL of FaSSIF (maximum solubility approximately 200 μM). […] The equilibrated solubility solution is filtered by centrifugation (3 minutes at 4000 rpm) using a 0.45 µm filter with a polypropylene membrane. The standard solution and the filtered equilibrated solubility solution are analyzed by HPLC/DAD. The solubility value is calculated by the following equation:
Solubility=(Peak area of sample/Peak area of standard)(Standard concentration)

| Structure (SMILES) | IC50 [1] | solubility [2] |
| --- | --- | --- |
| Cc1cc(Nc2cc(C(F)F)ccn2)nc(-c2ccc([C@](C)(O)[C@H]3CC[C@H](C(=O)OCOC(=O)[C@@H](O)Cc4ccc(O)cc4)CC3)nc2)c1 [Example 3-6, {[(2S)-2-hydroxy-3-(4-hydroxyphenyl)propanoyl]oxy}methyl trans-4-[(1R)-1-(6-{[4-(difluoromethyl)pyridin-2-yl]amino}-4-methyl-2,3′-bipyridin-6′-yl)-1-hydroxyethyl]cyclohexane carboxylate] | 4.1 nM | 89 µM (≈ 60.2 µg/mL) |
| Cc1cc(Nc2cc(C(F)F)ccn2)nc(-c2ccc([C@](C)(O)[C@H]3CC[C@H](C(=O)OCOC(=O)CCO)CC3)nc2)c1 [Example 3-9, [(3-hydroxypropanoyl)oxy] methyl trans-4-[(1R)-1-(6-{[4-(difluoromethyl)pyridin-2-yl]amino}-4-methyl-2,3′-bipyridin-6′-yl)-1-hydroxyethyl]cyclohexane carboxylate] | 4.8 nM | 160 µM (≈ 93.5 µg/mL) |
| CC[N+](COC(=O)[C@H]1CC[C@H]([C@@](C)(O)c2ccc(-c3cc(C)cc(Nc4cc(C(F)F)ccn4)n3)cn2)CC1)(C(C)C)C(C)C [Example 5-3, N-{[({trans-4-[(1R)-1-(6-{[4-(difluoromethyl)pyridin-2-yl]amino}-4-methyl-2,3′-bipyridin-6′-yl)-1-hydroxyethyl]cyclohexyl}carbonyl)oxy]methyl}-N-ethyl-N-(1-methylethyl)propan-2-aminium] | 1.9 nM | 175 µM |
| Cc1cc(Nc2cc(C(F)F)ccn2)nc(-c2ccc([C@](C)(O)[C@H]3CC[C@H](C(=O)OC[N+](C)(C)CCN(C)C)CC3)nc2)c1 [Example 5-5, N-{[({trans-4-[(1R)-1-(6-{[4-(difluoromethyl)pyridin-2-yl]amino}-4-methyl-2,3′-bipyridin-6′-yl)-1-hydroxyethyl]cyclohexyl}carbonyl)oxy]methyl}-2-(dimethylamino)-N,N-dimethylethanaminium] | 1.3 nM | 53 µM |
| CC[N+](CC)(CCCC(C)O)COC(=O)[C@H]1CC[C@H]([C@@](C)(O)c2ccc(-c3cc(C)cc(Nc4cc(C(F)F)ccn4)n3)cn2)CC1 (stereo partly drawn) [Example 5-7, N-{[({trans-4-[(1R)-1-(6-{[4-(difluoromethyl)pyridin-2-yl]amino}-4-methyl-2,3′-bipyridin-6′-yl)-1-hydroxyethyl]cyclohexyl}carbonyl)oxy]methyl}-N,N-diethyl-4-hydroxypentan-1-aminium] | 1.3 nM | 200 µM |
| CC[N+](CC)(CC)COC(=O)[C@H]1CC[C@H]([C@@](C)(O)c2ccc(-c3cc(C)cc(Nc4cc(C(F)F)ccn4)n3)cn2)CC1 [Example 5-10, N-{[({trans-4-[(1R)-1-(6-{[4-(difluoromethyl)pyridin-2-yl]amino}-4-methyl-2,3′-bipyridin-6′-yl)-1-hydroxyethyl]cyclohexyl}carbonyl)oxy]methyl}-N,N-diethylethanaminium] | 1.4 nM | 138 µM |
| CC[N+]1(COC(=O)[C@H]2CC[C@H]([C@@](C)(O)c3ccc(-c4cc(C)cc(Nc5cc(C(F)F)ccn5)n4)cn3)CC2)CCCCC1 [Example 5-14, 1-{[({trans-4-[(1R)-1-(6-{[4-(difluoromethyl)pyridin-2-yl]amino}-4-methyl-2,3′-bipyridin-6′-yl)-1-hydroxyethyl]cyclohexyl}carbonyl)oxy]methyl}-1-ethylpiperidinium] | 2.3 nM | 200 µM |
| CC(=O)C1CC[N+](C)(COC(=O)[C@H]2CC[C@H]([C@@](C)(O)c3ccc(-c4cc(C)cc(Nc5cc(C(F)F)ccn5)n4)cn3)CC2)CC1 (stereo partly drawn) [Example 5-17, 4-acetyl-1-{[({trans-4-[(1R)-1-(6-{[4-(difluoromethyl)pyridin-2-yl]amino}-4-methyl-2,3′-bipyridin-6′-yl)-1-hydroxyethyl]cyclohexyl}carbonyl)oxy]methyl}-1-methylpiperidinium] | 1.6 nM | 45 µM |
| Cc1cc(Nc2cc(C(F)F)ccn2)nc(-c2ccc([C@](C)(O)[C@H]3CC[C@H](C(=O)OC[N+](C)(C)CCOCCN(C)C)CC3)nc2)c1 [Example 5-23, N-{[({trans-4-[(1R)-1-(6-{[4-(difluoromethyl)pyridin-2-yl]amino}-4-methyl-2,3′-bipyridin-6′-yl)-1-hydroxyethyl]cyclohexyl}carbonyl)oxy]methyl}-2-[2-(dimethylamino)ethoxy]-N,N-dimethylethanaminium] | 1.1 nM | 98 µM |

Continued, values first:

| IC50 [1] | solubility [2] | Structure (SMILES) |
| --- | --- | --- |
| 0.8 nM | 97 µM | Cc1cc(Nc2cc(C(F)F)ccn2)nc(-c2ccc([C@](C)(O)[C@H]3CC[C@H](C(=O)OC[N+](C)(C)C(C)C)CC3)nc2)c1 [Example 5-2, N-{[({trans-4-[(1R)-1-(6-{[4-(difluoromethyl)pyridin-2-yl]amino}-4-methyl-2,3′-bipyridin-6′-yl)-1-hydroxyethyl]cyclohexyl}carbonyl)oxy]methyl}-N,N-dimethylpropan-2-aminium] |
| 1.1 nM | 152 µM | CCCC[N+](CC)(CC)COC(=O)[C@H]1CC[C@H]([C@@](C)(O)c2ccc(-c3cc(C)cc(Nc4cc(C(F)F)ccn4)n3)cn2)CC1 [Example 5-6, N-{[({trans-4-[(1R)-1-(6-{[4-(difluoromethyl)pyridin-2-yl]amino}-4-methyl-2,3′-bipyridin-6′-yl)-1-hydroxyethyl]cyclohexyl}carbonyl)oxy]methyl}-N,N-diethylbutan-1-aminium] |
| 1 nM | 137 µM | CCC[N+](CCC)(CCC)COC(=O)[C@H]1CC[C@H]([C@@](C)(O)c2ccc(-c3cc(C)cc(Nc4cc(C(F)F)ccn4)n3)cn2)CC1 [Example 5-9, N-{[({trans-4-[(1R)-1-(6-{[4-(difluoromethyl)pyridin-2-yl]amino}-4-methyl-2,3′-bipyridin-6′-yl)-1-hydroxyethyl]cyclohexyl}carbonyl)oxy]methyl}-N,N-dipropylpropan-1-aminium] |
| 0.9 nM | 200 µM | Cc1cc(Nc2cc(C(F)F)ccn2)nc(-c2ccc([C@](C)(O)[C@H]3CC[C@H](C(=O)OC[N+](C)(C)C4CCCCC4)CC3)nc2)c1 [Example 5-11, N-{[({trans-4-[(1R)-1-(6-{[4-(difluoromethyl)pyridin-2-yl]amino}-4-methyl-2,3′-bipyridin-6′-yl)-1-hydroxyethyl]cyclohexyl}carbonyl)oxy]methyl}-N,N-dimethylcyclohexanaminium] |
| < 0.5 nM | 55 µM | CCN(CC)C(=O)N1CC[N+](C)(COC(=O)[C@H]2CC[C@H]([C@@](C)(O)c3ccc(-c4cc(C)cc(Nc5cc(C(F)F)ccn5)n4)cn3)CC2)CC1 [Example 5-12, 4-(diethylcarbamoyl)-1-{[({trans-4-[(1R)-1-(6-{[4-(difluoromethyl)pyridin-2-yl]amino}-4-methyl-2,3′-bipyridin-6′-yl)-1-hydroxyethyl]cyclohexyl}carbonyl)oxy]methyl}-1-methylpiperazin-1-ium] |
| 0.8 nM | 86 µM | Cc1cc(Nc2cc(C(F)F)ccn2)nc(-c2ccc([C@](C)(O)[C@H]3CC[C@H](C(=O)OC[N+](C)(C)Cc4ccccc4)CC3)nc2)c1 [Example 5-20, N-benzyl[({trans-4-[(1R)-1-(6-{[4-(difluoromethyl)pyridin-2-yl]amino}-4-methyl-2,3′-bipyridin-6′-yl)-1-hydroxyethyl]cyclohexyl}carbonyl)oxy]-N,N-dimethylmethanaminium] |

— US20150299125A1, “PRODRUG BIPYRIDYLAMINOPYRIDINES AS SYK INHIBITORS” (MERCK SHARP & DOHME CORP., priority 2012, published 2015)
